# Experimental data reported in US11339171B2, “MDM2 inhibitors” (Gan & Lee Pharmaceuticals, priority 2017, dated 2022).
# Several values for one entry are separate records, joined by “and”; a condition that tells them apart may be missing. Equal entries are not always repeated. Where two headings read alike, the source gives them in different places.
# Tests used:
# [1] = target: T1, MDM2 (Homo sapiens, UniProt Q00987); assay: Inhibition test of MDM2-P53 (GST-MDM2, Biotin-P53, Anti-GST-Tb, SA-XL665); assay type: binding
# T1 construct: made in house
# T1 sequence (Q00987 whole entry): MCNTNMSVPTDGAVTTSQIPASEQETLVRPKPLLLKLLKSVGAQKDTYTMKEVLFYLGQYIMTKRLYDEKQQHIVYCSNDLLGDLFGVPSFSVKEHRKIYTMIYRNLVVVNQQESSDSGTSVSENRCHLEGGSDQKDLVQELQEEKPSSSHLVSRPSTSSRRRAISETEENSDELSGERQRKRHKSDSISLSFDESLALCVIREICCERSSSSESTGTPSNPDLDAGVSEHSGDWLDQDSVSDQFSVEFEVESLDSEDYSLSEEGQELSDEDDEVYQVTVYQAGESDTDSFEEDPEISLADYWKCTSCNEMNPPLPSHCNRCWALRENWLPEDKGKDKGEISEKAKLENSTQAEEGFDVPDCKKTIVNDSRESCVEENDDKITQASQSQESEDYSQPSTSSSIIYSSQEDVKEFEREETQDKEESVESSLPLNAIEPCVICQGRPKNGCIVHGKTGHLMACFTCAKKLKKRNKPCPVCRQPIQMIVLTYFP
# Summary of the method: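 HTRF-type assay using 4 nM GST-MDM2 (final), Biotin-P53, SA-XL665 and anti-GST-Tb in PBS with 0.1% BSA, 5 mM DTT and 1 mM AEBSF. Compounds in 5-fold serial dilutions over twelve points; incubation 90 min at 25° C with shaking before plate-reader read-out.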
# [2] = system: human osteosarcoma cell line SJSA-1; assay: Inhibition of proliferation of human osteosarcoma cell line SJSA-1 (DAPI staining, In Cell Analyzer); details: Homo sapiens, SJSA-1, 72 h, read-out: IC50 (nM), inhibitory activity on proliferation of human osteosarcoma cell line SJSA-1, SJSA-1, incubated 72 h
# [3] = Pharmacokinetics in ICR mice after intravenous and intragastric administration; assay type: in vivo; details: for MRT last: read-out: MRT(0-t); for MRT inf: read-out: MRT(0-∞); for Vd: read-out: Vz
# Procedure: Experimental Example 3 Determination of the Pharmacokinetics of the Mdm2 Inhibitors of the Present Invention in Mice
# ICR mice were used as the test animals, and the concentrations of the drugs in plasma of mice at different time points after intravenous administration and intragastric administration of the representative compounds were measured by a LC/MS/MS method, so as to study the pharmacokinetic behavior of the compounds of the present invention in mice and evaluate the pharmacokinetic characteristics thereof.
# Some compounds prepared in Examples 1-180 of the present invention.
# The control drug HDM201 was prepared by the method disclosed in patent No. CN104203952A.
# Healthy adult ICR mice, male, 6-9 weeks old, weighing 20-30 g, purchased from Shanghai Xipuer-Bikai Laboratory Animal Co., Ltd., Animal Production License No.: SCXK (HU) 2013-0016
# 3.2.3 Preparation of Test Drugs
# Intragastric or intravenous administration: an appropriate amount of sample was weighed, dissolved in 5% DMSO+40% PEG400+55% (10% HP-β-CD in Saline) to prepare a 0.5 mg/ml solution for intragastric or intravenous administration.
# 3.2.4 Administration of Test Drugs
# Intravenous administration: for each test compound, 3 male ICR mice were administered intravenously at a dose of 2 mg/kg and an administration volume of […] after fasting overnight.
# Intragastric administration: for each test compound, 3 male ICR mice were administered intragastrically at a dose of 5 mg/kg and an administration volume of […] after fasting overnight.
# 3.3 Experimental Operation
# The collected plasma was stored at −80° C. before analysis. The plasma sample was analyzed by LC-MS/MS, and the sample was pretreated by protein precipitation method. The linear range of sample analysis was 1 to 2000 ng/ml. The lowest quantification limit was 1 ng/mL. WinNonlin (Pharsight, USA) was used to calculate the following pharmacokinetic parameters: area under the curve AUC(0-t), area under the curve AUC(0-∞), half-life t1/2, retention time MRT(0-∞), blood drug concentration Cmax, time taken to reach the peak blood drug concentration Tmax, bioavailability F, apparent volume of distribution Vz, and clearance rate CL.
# [4] = ICR mice, IV 2 mg/kg, individual animal, 2 mg/kg
# [5] = ICR mice, PO 5 mg/kg, individual animal, 5 mg/kg
# [6] = male, ICR, mouse, plasma, iv, 2 mg/kg, ICR mice, IV 2 mg/kg, individual animal
# [7] = male, ICR, mouse, plasma, iv, 2 mg/kg, ICR mice, IV 2 mg/kg, individual animal, read-out: AUC(0-t)
# [8] = male, ICR, mouse, plasma, iv, 2 mg/kg, ICR mice, IV 2 mg/kg, individual animal, read-out: Cmax
# [9] = male, ICR, mouse, plasma, iv, 2 mg/kg, ICR mice, IV 2 mg/kg, individual animal, read-out: t1/2 (converted)
# [10] = male, ICR, mouse, plasma, iv, 2 mg/kg, ICR mice, IV 2 mg/kg, mean of 3 animals
# [11] = male, ICR, mouse, plasma, iv, 2 mg/kg, ICR mice, IV 2 mg/kg, mean of 3 animals, read-out: AUC(0-t)
# [12] = male, ICR, mouse, plasma, iv, 2 mg/kg, ICR mice, IV 2 mg/kg, mean of 3 animals, read-out: Cmax
# [13] = male, ICR, mouse, plasma, iv, 2 mg/kg, ICR mice, IV 2 mg/kg, mean of 3 animals, read-out: Tmax
# [14] = male, ICR, mouse, plasma, iv, 2 mg/kg, ICR mice, IV 2 mg/kg, mean of 3 animals, read-out: t1/2 (converted)
# [15] = male, ICR, mouse, plasma, po, 5 mg/kg, ICR mice, PO 5 mg/kg, individual animal
# [16] = male, ICR, mouse, plasma, po, 5 mg/kg, ICR mice, PO 5 mg/kg, individual animal, read-out: AUC(0-t)
# [17] = male, ICR, mouse, plasma, po, 5 mg/kg, ICR mice, PO 5 mg/kg, individual animal, read-out: Cmax
# [18] = male, ICR, mouse, plasma, po, 5 mg/kg, ICR mice, PO 5 mg/kg, individual animal, read-out: Tmax
# [19] = male, ICR, mouse, plasma, po, 5 mg/kg, ICR mice, PO 5 mg/kg, individual animal, read-out: t1/2 (converted)
# [20] = male, ICR, mouse, plasma, po, 5 mg/kg, ICR mice, PO 5 mg/kg, mean of 3 animals
# [21] = male, ICR, mouse, plasma, po, 5 mg/kg, ICR mice, PO 5 mg/kg, mean of 3 animals, read-out: AUC(0-t)
# [22] = male, ICR, mouse, plasma, po, 5 mg/kg, ICR mice, PO 5 mg/kg, mean of 3 animals, read-out: Cmax
# [23] = male, ICR, mouse, plasma, po, 5 mg/kg, ICR mice, PO 5 mg/kg, mean of 3 animals, read-out: Tmax
# [24] = male, ICR, mouse, plasma, po, 5 mg/kg, ICR mice, PO 5 mg/kg, mean of 3 animals, read-out: t1/2 (converted)
# [25] = male, ICR, mouse, plasma, po, 5 mg/kg, oral intragastric administration 5 mg/kg, read-out: AUC0-t
# [26] = male, ICR, mouse, plasma, po, 5 mg/kg, oral intragastric administration 5 mg/kg, read-out: half-life (converted)
# [27] = male, mouse, plasma, ICR mice, PO 5 mg/kg vs IV 2 mg/kg, from mean values, read-out: F* (bioavailability)
structure (smiles),measurement,setting,value
"COc1nc(C2CC2)ncc1-c1nc2c(n1C(C)C)[C@@]1(C(=O)Nc3cc(Cl)ccc31)N(c1cc(Cl)ccc1C)C2=O [Example S-121, (S)-6-chloro-5′-(5-chloro-2-methylphenyl)-2′-(2-cyclopropyl-4-methoxypyrimidin-5-yl)-3′-isopropyl-3′H-spiro[dihydroindole-3,4′-pyrrolo[3,4-d]imidazole]-2,6′(5′H)-dione]",IC50,[1],3.35 nM
same,IC50,[2],67 nM
same,AUC(0-t),[3]; [4],26953.62 ng·h/mL and 24572.30 ng·h/mL
same,AUC(0-∞),[3]; [4],27749.72 ng·h/mL and 25488.79 ng·h/mL
same,CL,[3]; [4],1.20 mL/min/kg and 1.31 mL/min/kg
same,Cmax,[3]; [4],3576.94 ng/mL and 3887.60 ng/mL
same,MRT(0-t),[3]; [4],5.04 h and 5.26 h
same,MRT(0-∞),[3]; [4],5.79 h and 6.22 h
same,Vz,[3]; [4],0.53 L/kg and 0.62 L/kg
same,t1/2,[3]; [4],5.09 h and 5.50 h
same,AUC(0-t),[3]; [5],43063.09 ng·h/mL and 40782.54 ng·h/mL
same,AUC(0-∞),[3]; [5],43407.01 ng·h/mL and 41032.91 ng·h/mL
same,Cmax,[3]; [5],4835.52 ng/mL and 4714.57 ng/mL
same,MRT(0-t),[3]; [5],5.27 h and 5.40 h
same,MRT(0-∞),[3]; [5],5.45 h and 5.54 h
same,Tmax,[3]; [5],4.00 h
same,t1/2,[3]; [5],3.34 h and 3.14 h
same,AUC(0-inf),[3]; [6],29400 ng·h/mL
same,clearance,[3]; [6],1.14 mL/min/kg
same,AUC(0-t),[3]; [7],28400 ng·h/mL
same,Cmax,[3]; [8],3350 ng/mL
same,MRT last,[3]; [6],5.15 h
same,MRT inf,[3]; [6],6.03 h
same,Tmax,"[3]; male, ICR, mouse, plasma, iv, 2 mg/kg, ICR mice, IV 2 mg/kg, individual animal, read-out: Tmax",0.08 h
same,Vd,[3]; [6],0.52 L/kg
same,half-life,[3]; [9],5.25 h
same,AUC(0-inf),[3]; [10],27500 ng·h/mL
same,clearance,[3]; [10],1.21 mL/min/kg
same,AUC(0-t),[3]; [11],26600 ng·h/mL
same,Cmax,[3]; [12],3600 ng/mL
same,MRT last,[3]; [10],5.15 h
same,MRT inf,[3]; [10],6.01 h
same,Tmax,[3]; [13],0.083 h
same,Vd,[3]; [10],0.56 L/kg
same,half-life,[3]; [14],5.28 h
same,AUC(0-inf),[3]; [15],40300 ng·h/mL
same,AUC(0-t),[3]; [16],40100 ng·h/mL
same,Cmax,[3]; [17],4920 ng/mL
same,MRT last,[3]; [15],4.96 h
same,MRT inf,[3]; [15],5.08 h
same,Tmax,[3]; [18],2 h
same,half-life,[3]; [19],3.09 h
same,AUC(0-inf),[3]; [20],41600 ng·h/mL
same,AUC(0-t),[3]; [21],41300 ng·h/mL
same,Cmax,[3]; [22],4820 ng/mL
same,MRT last,[3]; [20],5.21 h
same,MRT inf,[3]; [20],5.36 h
same,Tmax,[3]; [23],3.33 h
same,half-life,[3]; [24],3.19 h
same,AUC(0-t),[3]; [25],41300 ng·h/mL
same,half-life,[3]; [26],3.19 h
same,bioavailability,[3]; [27],62%
"COc1ncc(-c2nc3c(n2C(C)C)[C@@]2(C(=O)Nc4cc(Cl)ccc42)N(c2cc(F)cc(Cl)c2)C3=O)c(OC)n1 [Example S-45, (S)-6-chloro-5′-(3-chloro-5-fluorophenyl)-2′-(2,4-dimethoxypyrimidin-5-yl)-3′-isopropyl-3′H-spiro[dihydroindole-3,4′-pyrrolo[3,4-d]imidazole]-2,6′(5′H)-dione]",IC50,[1],1.72 nM
same,IC50,[2],6.2 nM
same,AUC(0-t),[3]; [4],1865.23 ng·h/mL and 2072.07 ng·h/mL
same,AUC(0-∞),[3]; [4],1895.22 ng·h/mL and 2103.04 ng·h/mL
same,CL,[3]; [4],17.59 mL/min/kg and 15.85 mL/min/kg
same,Cmax,[3]; [4],779.74 ng/mL and 882.75 ng/mL
same,MRT(0-t),[3]; [4],1.36 h
same,MRT(0-∞),[3]; [4],1.44 h
same,Tmax,[3]; [4],0.08 h and 0.25 h
same,Vz,[3]; [4],1.54 L/kg and 1.37 L/kg
same,t1/2,[3]; [4],1.01 h and 1.00 h
same,AUC(0-t),[3]; [5],5315.63 ng·h/mL and 4196.04 ng·h/mL
same,AUC(0-∞),[3]; [5],5471.40 ng·h/mL and 4431.71 ng·h/mL
same,Cmax,[3]; [5],1355.63 ng/mL and 1169.32 ng/mL
same,MRT(0-t),[3]; [5],2.53 h
same,MRT(0-∞),[3]; [5],2.75 h
same,Tmax,[3]; [5],1.00 h
same,t1/2,[3]; [5],1.54 h and 1.87 h
same,AUC(0-inf),[3]; [6],1830 ng·h/mL
same,clearance,[3]; [6],18.3 mL/min/kg
same,AUC(0-t),[3]; [7],1790 ng·h/mL
same,Cmax,[3]; [8],766 ng/mL
same,MRT last,[3]; [6],1.34 h
same,MRT inf,[3]; [6],1.45 h
same,Vd,[3]; [6],1.65 L/kg
same,half-life,[3]; [9],1.05 h
same,AUC(0-inf),[3]; [10],1940 ng·h/mL
same,clearance,[3]; [10],17.2 mL/min/kg
same,AUC(0-t),[3]; [11],19100 ng·h/mL
same,Cmax,[3]; [12],809 ng/mL
same,MRT last,[3]; [10],1.35 h
same,MRT inf,[3]; [10],1.45 h
same,Tmax,[3]; [13],0.139 h
same,Vd,[3]; [10],1.52 L/kg
same,half-life,[3]; [14],1.02 h
same,AUC(0-inf),[3]; [15],6350 ng·h/mL
same,AUC(0-t),[3]; [16],5860 ng·h/mL
same,Cmax,[3]; [17],1590 ng/mL
same,MRT last,[3]; [15],2.56 h
same,MRT inf,[3]; [15],3.21 h
same,Tmax,[3]; [18],0.5 h
same,half-life,[3]; [19],2.17 h
same,AUC(0-inf),[3]; [20],5420 ng·h/mL
same,AUC(0-t),[3]; [21],5120 ng·h/mL
same,Cmax,[3]; [22],1370 ng/mL
same,MRT last,[3]; [20],2.55 h
same,MRT inf,[3]; [20],2.99 h
same,Tmax,[3]; [23],0.83 h
same,half-life,[3]; [24],1.86 h
same,AUC(0-t),[3]; [25],5120 ng·h/mL
same,half-life,[3]; [26],1.86 h
same,bioavailability,"[3]; male, ICR, mouse, plasma, oral intragastric administration 5 mg/kg, read-out: bioavailability",107%
same,bioavailability,[3]; [27],107%
